From PubChem BioAssay (NCI) come the findings set out here.

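Each compound was tested at five concentrations against cells in 96-well plates for 48 hours. GI50: concentration for 50% inhibition of growth. The concentration for full growth arrest is given as TGI.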

Test systems include PC-3 prostate; MALME-3M melanoma; UACC-62 melanoma; SF-295 CNS; 786-0 renal; SR leukemia; COLO 205 colon; T-47D breast.
What all share (assay): NCI anticancer screen, dose series, 48 h

With `C=C1C(O)C2C(=C(CCc3ccccc3)C13CC3)C(=O)C(C)(CO)C2O` (configuration not stated), the GI50 in the assay on PC-3 prostate is above 100 µM; in the assay with MALME-3M melanoma, above 100 µM; in the assay with UACC-62 melanoma, above 100 µM; in the assay with SF-295 CNS it was above 100 µM; in the assay on 786-0 renal it was above 100 µM; with SR leukemia, 38.6 µM. Also, the GI50 in the assay with COLO 205 colon is above 100 µM. Moreover, the TGI with PC-3 prostate, in the assay on MALME-3M melanoma, in the assay on UACC-62 melanoma, in the assay with SF-295 CNS, with 786-0 renal and with SR leukemia was above 100 µM each time. The compound also returned a TGI in the assay on COLO 205 colon above 100 µM.
With `C=C(C)C(=O)O[C@H]1C[C@@]23O[C@@H]2CCC(=C[C@H]2OC(=O)C(=C)[C@H]12)COC3O` (some centres not stated), the TGI was above 100 µM in the assay on PC-3 prostate; above 100 µM with T-47D breast; above 100 µM with UACC-62 melanoma; above 100 µM with SF-295 CNS; above 100 µM in the assay on 786-0 renal; 95.1 µM with SR leukemia. This compound displayed a TGI in the assay on COLO 205 colon of 56.8 µM.
Regarding `COc1cc(-c2cc3ncccc3c3nc(N)c4cccnc4c23)cc(OC)c1OC`, the GI50 in the assay on PC-3 prostate was 0.579 µM; with T-47D breast, 0.824 µM; with UACC-62 melanoma, 0.358 µM; with SF-295 CNS, 0.308 µM; with 786-0 renal, 0.511 µM; in the assay with SR leukemia, 0.124 µM. Further, the GI50 in the assay on COLO 205 colon is 0.246 µM. Moreover, the TGI is above 100 µM in the assay with PC-3 prostate; 32 µM in the assay on T-47D breast; 19.4 µM in the assay with UACC-62 melanoma; 15.5 µM with SF-295 CNS; 10.8 µM in the assay on 786-0 renal; 4.97 µM in the assay with SR leukemia. Besides, the TGI in the assay on COLO 205 colon was found to be 18.9 µM.
With `O=C1c2ccccc2-c2c1c1c(=O)[nH]c3ccccc3c1n2Cc1ccccc1`, the GI50 is 34.3 µM in the assay with T-47D breast; 37.1 µM in the assay with MALME-3M melanoma; 33.8 µM in the assay with UACC-62 melanoma; 17.2 µM in the assay on SF-295 CNS; 33 µM in the assay with 786-0 renal; above 100 µM with SR leukemia. Further, in the assay with COLO 205 colon, the GI50 was above 100 µM. Moreover, the TGI was above 100 µM in the assay on T-47D breast; above 100 µM in the assay on MALME-3M melanoma; above 100 µM with UACC-62 melanoma; 40.9 µM with SF-295 CNS; 85 µM with 786-0 renal; above 100 µM in the assay with SR leukemia. The compound further returned a TGI in the assay on COLO 205 colon above 100 µM.
For `COc1ccc(-c2cc(=O)c3ccc(C)nc3[nH]2)cc1`, the GI50 in the assay with PC-3 prostate was above 100 µM; in the assay on SF-295 CNS, 88.3 µM; with 786-0 renal, above 100 µM. Also, the TGI in the assay on PC-3 prostate, in the assay with T-47D breast, in the assay on MALME-3M melanoma, in the assay on UACC-62 melanoma, in the assay on SF-295 CNS and in the assay on 786-0 renal was above 100 µM throughout. The same compound yielded a TGI in the assay with COLO 205 colon above 100 µM.
As for `CN(C)CCCNC(=O)c1cc(NC(=O)c2cc(NC(=O)CCc3c[nH]c4ccccc34)cn2C)cn1C`, the GI50 in the assay on PC-3 prostate, with T-47D breast, in the assay with MALME-3M melanoma, in the assay with UACC-62 melanoma, with SF-295 CNS and with 786-0 renal was above 100 µM throughout. Moreover, the GI50 with COLO 205 colon was above 100 µM. Further, the TGI with PC-3 prostate, with T-47D breast, in the assay with MALME-3M melanoma, in the assay with UACC-62 melanoma, in the assay with SF-295 CNS and with 786-0 renal was above 100 µM each time. In addition, the TGI in the assay on COLO 205 colon is above 100 µM.
For `Cc1ccc(C)c2c1C(O)(C#Cc1ccccc1)c1ccccc1C2(O)C#Cc1ccccc1` (configuration not stated), the GI50 with PC-3 prostate was 2.42 µM; in the assay on T-47D breast, 2 µM; in the assay on UACC-62 melanoma it was 2.84 µM; in the assay with SF-295 CNS, 2.91 µM; in the assay with 786-0 renal it was 3.72 µM; with SR leukemia it was 2.52 µM. In addition, the GI50 in the assay on COLO 205 colon is 2.01 µM. In addition, the TGI is above 23.7 µM with PC-3 prostate; above 27.5 µM with T-47D breast; above 100 µM with UACC-62 melanoma; above 100 µM with SF-295 CNS; above 35.7 µM with 786-0 renal; above 100 µM in the assay on SR leukemia. Also, the TGI in the assay with COLO 205 colon worked out at 6.48 µM.
Regarding `Nc1ccc(C2=NN(c3ccccc3)C(c3ccc(Cl)cc3)C2)cc1` (configuration not stated), the GI50 in the assay on T-47D breast was 2.06 µM; in the assay on MALME-3M melanoma, 16.2 µM; in the assay with UACC-62 melanoma, 3.12 µM; in the assay with SF-295 CNS, 9 µM; in the assay on 786-0 renal, 2.03 µM; in the assay on SR leukemia, 1.71 µM. Also, the GI50 with COLO 205 colon was 2.15 µM. The TGI with T-47D breast was determined as 4.48 µM; in the assay with MALME-3M melanoma it was 43.8 µM; in the assay on UACC-62 melanoma it was 12.9 µM; in the assay with SF-295 CNS it was 24.9 µM; in the assay on 786-0 renal it was 4.22 µM; in the assay on SR leukemia, 4.27 µM. This compound also displayed a TGI in the assay on COLO 205 colon of 4.54 µM.
On to `COc1ccc(-c2cn[nH]c2-c2cc(OC)c3c(c2)OCO3)cc1`, for which the GI50 was 0.262 µM in the assay on PC-3 prostate; 0.397 µM in the assay with UACC-62 melanoma; 0.181 µM in the assay with SF-295 CNS; 0.585 µM with 786-0 renal; 0.0631 µM in the assay on SR leukemia; 0.164 µM in the assay with COLO 205 colon. The TGI with PC-3 prostate came out at 21.8 µM; in the assay with UACC-62 melanoma, 14.9 µM; in the assay with SF-295 CNS, 4.15 µM; in the assay on 786-0 renal, 14.2 µM; with SR leukemia it was 16.8 µM; in the assay with COLO 205 colon, 0.768 µM.
For `C=C1C(=O)O[C@H]2C[C@@H]1CC/C(C)=C/CC/C(C)=C/CC[C@H]2C`, the GI50 with PC-3 prostate was 8.54 µM; with T-47D breast, 25 µM; with UACC-62 melanoma it was 19.3 µM; in the assay on SF-295 CNS, 13.4 µM; in the assay with 786-0 renal, 14.3 µM; in the assay with SR leukemia, 7.14 µM. Besides, the GI50 with COLO 205 colon is 30.1 µM. Also, the TGI worked out at 20.9 µM in the assay with PC-3 prostate; 51.6 µM in the assay with T-47D breast; 34.6 µM in the assay on UACC-62 melanoma; 32.7 µM in the assay on SF-295 CNS; 28.2 µM in the assay with 786-0 renal; 15.2 µM with SR leukemia. Besides, the TGI with COLO 205 colon was above 83.7 µM.
With `Fc1ccc2[nH]cc(-c3nonc3-c3c[nH]c4ccc(Br)cc34)c2c1`, the GI50 in the assay on PC-3 prostate is 2.05 µM; in the assay on MALME-3M melanoma, 2.34 µM; in the assay on UACC-62 melanoma, 1.72 µM; in the assay on SF-295 CNS, 1.94 µM; with 786-0 renal, 2.16 µM. Moreover, the TGI in the assay with PC-3 prostate came out at 7.68 µM; in the assay with MALME-3M melanoma, 7.85 µM; in the assay on UACC-62 melanoma it was 4.38 µM; in the assay on SF-295 CNS it was 4.2 µM; in the assay on 786-0 renal, 4.5 µM.
